Source: paper PMC4492635 (Drug Design, Development and Therapy, 2015)

Key:
hHMGR = biological target: T1, hHMGR (Homo sapiens, UniProt P04035); assay: Enzymatic assay of recombinant hHMGR; format: biochemical; conditions: result in words, Figure 4
T1 sequence (P04035 450-883 limits assumed): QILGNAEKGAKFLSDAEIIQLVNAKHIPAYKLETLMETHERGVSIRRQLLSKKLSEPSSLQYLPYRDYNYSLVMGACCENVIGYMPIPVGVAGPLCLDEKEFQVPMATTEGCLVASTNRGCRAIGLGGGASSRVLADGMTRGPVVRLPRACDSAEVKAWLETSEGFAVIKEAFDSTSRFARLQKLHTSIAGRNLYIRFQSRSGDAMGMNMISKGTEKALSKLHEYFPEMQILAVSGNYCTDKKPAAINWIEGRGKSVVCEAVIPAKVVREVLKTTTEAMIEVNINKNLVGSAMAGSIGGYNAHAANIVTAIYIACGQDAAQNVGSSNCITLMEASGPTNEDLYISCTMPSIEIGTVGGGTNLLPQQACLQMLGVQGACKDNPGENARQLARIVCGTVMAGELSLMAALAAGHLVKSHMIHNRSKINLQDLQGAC

HepG2 cells = assay: MTT assay, cellular toxicity on HepG2 cells; format: cell-based; conditions: 24 h treatment, result in words

Row | SMILES | inhibition of hHMGR activities (hHMGR) | cytotoxic effect (HepG2 cells)
1 | Nc1nc(O)c2nc(CNc3ccc(C(=O)N[C@@H](CCC(=O)O)C(=O)O)cc3)cnc2n1 [Compound 10, (2S)-2-[(4-{[(2-amino-4-hydroxypteridin-6-yl)methyl]amino}phenyl) formamido] pentanedioic acid] | no inhibitory capability | –
2 | CCCCCCCCCCCCCCCCCCCCCCO [Compound 8, Docosan-1-ol] | effectively inhibit | milder cytotoxic effect
3 | O=C(/C=C/c1ccc(O)c2oc(-c3ccc(O)c(O)c3)cc12)O[C@H](Cc1ccc(O)c(O)c1)C(=O)O [Compound 1, (2r)-3-(3,4-dihydroxyphenyl)-2-[(E)-3-[2-(3,4-dihydroxyphenyl)-7-hydroxy-1-benzofuran-4-yl]prop-2-enoyl] oxypropanoic acid] | effectively inhibit | –
4 | COc1cc(/C=C/C(=O)CC(=O)/C=C/c2ccc(O)c(OC)c2)ccc1O [Compound 3, (1E,6E)-1,7-bis(4-hydroxy-3-methoxyphenyl)-1,6-heptadiene-3,5-dione] | effectively inhibit | –
